Test system: rat C6 glioma xenografts
Experiment: Gene expression profiling (microarray, GO term and PAGE gene set analysis) in rat C6 glioma xenografts
Format: in vivo, mouse
Conditions: for Z score, GO0000775 Chromosome pericentric region / Z score, GO0004527 Exonuclease activity / Z score, GO0005634 Nucleus / Z score, GO0006260 DNA replication / Z score, GO0006270 DNA replication initiation / Z score, GO0007049 Cell cycle / Z score, GO0007051 Spindle organization and biogenesis / Z score, GO0007067 Mitosis / Z score, GO0048015 Phosphoinositide mediated signaling / Z score, GO0051301 Cell division: MNF_Crtl
Method: Analysis of gene expression in rat C6 glioma xenografts. Total RNA was isolated from rat C6 glioma xenografts harvested from vehicle and MNF-treated mice (n=3 per group, cohort 1). This analysis was repeated in a second cohort of animals (n=3 per group, cohort 2). Total cellular RNA was extracted using an RNeasy plus mini kit (QIAGEN, Valencia, Calif.), and its quality was assessed using an Agilent BioAnalyzer using RNA 6000 Nano Chips (Agilent Technologies, Santa Clara, Calif.). Transcriptional profiling was determined using Illumina Sentrix BeadChips (Illumina, San Diego, Calif.). Total RNA was used to generate biotin-labeled cRNA with the Illumina TotalPrep RNA Amplification Kit. In short, 0.5 ug of total RNA was first converted into single-stranded cDNA with reverse transcriptase using an oligo-dT primer containing the T7 RNA polymerase promoter site and then copied to produce double-stranded cDNA molecules. The double-stranded cDNA was cleaned and concentrated with the supplied columns and used in an overnight in-vitro transcription reaction where single-stranded RNA (cRNA) was generated incorporating biotin-16-UTP. A total of 0.75 μg of biotin-labeled cRNA was hybridized at 58° C. for 16 hours to Illumina's Sentrix Rat Ref-12 Expression BeadChips. Each BeadChip has ˜22,000 well-annotated RefSeq transcripts with approximately 30-fold redundancy. The arrays were washed, blocked and the labeled cRNA was detected by staining with streptavidin-Cy3. Hybridized arrays were scanned using an Illumina BeadStation 500× Genetic Analysis Systems scanner and the image data extracted using Illumina's GenomeStudio software, version 1.6.1. For statistical analysis, the expression data were filtered to include only probes with a consistent signal on each chip and an Illumina detecton p value <0.02.
Correlation analysis, sample clustering analysis and principal component analysis was performed to identify/exclude any possible outliers. The resulting dataset was next analyzed with DIANE 6.0, a spreadsheet-based microarray analysis program using value statistics for Z-Score reliability below 0.05; and mean background-corrected signal intensity greater than zero.
Gene set enrichment analysis use gene expression values or gene expression change values for all of the genes in the microarray. Parametric analysis of gene set enrichment (PAGE) was used using the WEB-PAGE GSA tool for gene set analysis. Gene Sets include the MSIG database, Gene Ontology Database, GAD human disease and mouse phenotype gene sets were used to explore functional level changes. Gene-gene interaction was also analyzed using the INGENUITY® Pathway Analysis (IPA) system (INGENUITY® Systems).

[1] = Table 9, gene sets influenced by MNF treatment

COc1ccc(C[C@@H](C)NC[C@H](O)c2cc(O)cc(O)c2)c2ccccc12 [(R,R′)-MNF, (R,R′)-4′-methoxy-1-naphthylfenoterol]
Z score, SHEPARD_GENES_COMMON_BW_CB_MO (MNF_Control, cohort 2): −4.3867 | Z score, STEMCELL_NEURAL_UP (MNF_Control, cohort 2): −5.0064 | Z score, TARTE_MATURE_PC (MNF_Control, cohort 2): 5.3293 | Z score, TARTE_PLASMA_BLASTIC (MNF_Control, cohort 2): −6.7905 | Z score, VERNELL_PRB_CLSTR1 (MNF_Control, cohort 2): −6.5636 | Z score, YU_CMYC_UP (MNF_Control, cohort 2): −7.3723 | Z score, ZHAN_MM_CD138_PR_VS_REST (MNF_Control, cohort 2): −9.0080 | Z score, ADIP_DIFF_CLUSTERS (MNF_Control, combined cohorts): −7.9684 | Z score, ATRBRCAPATHWAY (MNF_Control, combined cohorts): −3.4407 | Z score, BRCA_PROGNOSIS_NEG (MNF_Control, combined cohorts): −6.5976 | Z score, BRENTANI_REPAIR (MNF_Control, combined cohorts): −4.2370 | Z score, CANCER_UNDIFFERENTIATED_META_UP (MNF_Control, combined cohorts): −7.7981 | Z score, CELL_CYCLE (MNF_Control, combined cohorts): −8.6730 | Z score, CELL_CYCLE_KEGG (MNF_Control, combined cohorts): −7.8764 | Z score, CMV_IE86_UP (MNF_Control, combined cohorts): −8.5032 | Z score, CROONQUEST_IL6_STARVE_UP (MNF_Control, combined cohorts): −10.7172 | Z score, CROONQUIST_IL6_RAS_DN (MNF_Control, combined cohorts): −9.7453 | Z score, DAC_FIBRO_DN (MNF_Control, combined cohorts): −6.4794 | Z score, DNA_REPLICATION_REACTOME (MNF_Control, combined cohorts): −7.3185 | Z score, DOX_RESIST_GASTRIC_UP (MNF_Control, combined cohorts): −10.1840 | Z score, E2F1_DNA_UP (MNF_Control, combined cohorts): −5.4288 | Z score, GAY_YY1_DN (MNF_Control, combined cohorts): −7.4972 | Z score, GOLDRATH_HP (MNF_Control, combined cohorts): −3.4750 | Z score, HDACI_COLON_BUT12 HRS_UP (MNF_Control, combined cohorts): 5.8481 | Z score, HDACI_COLON_BUT16HRS_UP (MNF_Control, combined cohorts): 4.8024 | Z score, HDACI_COLON_BUT24HRS_UP (MNF_Control, combined cohorts): 4.4492 | Z score, HDACI_COLON_TSABUT_UP (MNF_Control, combined cohorts): 5.2313 | Z score, HIPPOCAMPUS_DEVELOPMENT_POSTNATAL (MNF_Control, combined cohorts): 11.4209 | Z score, HOFFMANN_BIVSBII_BI_TABLE2 (MNF_Control, combined cohorts): −8.5773 | Z score, HYPOPHYSECTOMY_RAT_DN (MNF_Control, combined cohorts): 5.3951 | Z score, IDX_TSA_UP_CLUSTER3 (MNF_Control, combined cohorts): −11.3388 | Z score, IRITANI_ADPROX_LYMPH (MNF_Control, combined cohorts): −5.7142 | Z score, KAMMINGA_EZH2_TARGETS (MNF_Control, combined cohorts): −8.8163 | Z score, KENNY_WNT_UP (MNF_Control, combined cohorts): −6.9481 | Z score, LAMB_CYCLIN_D3_GLOCUS (MNF_Control, combined cohorts): −5.0503 | Z score, LEE_TCELLS2_UP (MNF_Control, combined cohorts): −6.9464 | Z score, LEE_TCELLS3_UP (MNF_Control, combined cohorts): −10.3427 | Z score, LI_FETAL_VS_WT_KIDNEY_DN (MNF_Control, combined cohorts): −10.4609 | Z score, MANALO_HYPOXIA_DN (MNF_Control, combined cohorts): −6.7155 | Z score, MIDDLEAGE_DN (MNF_Control, combined cohorts): −8.2457 | Z score, MOREAUX_TACI_HI_IN_PPC_UP (MNF_Control, combined cohorts): −4.9180 | Z score, MOREAUX_TACI_HI_VS_LOW_DN (MNF_Control, combined cohorts): −5.1872 | Z score, OLDAGE_DN (MNF_Control, combined cohorts): −8.1220 | Z score, P21_P53_ANY_DN (MNF_Control, combined cohorts): −8.8530 | Z score, PEART_HISTONE_DN (MNF_Control, combined cohorts): −5.7817 | Z score, PODI_KO_UP (MNF_Control, combined cohorts): −5.1416 | Z score, PRMT5_KD_UP (MNF_Control, combined cohorts): −8.9362 | Z score, REN_E2F1_TARGETS (MNF_Control, combined cohorts): −4.4393 | Z score, SASAKI_ATL_UP (MNF_Control, combined cohorts): −7.2897 | Z score, SASAKI_TCELL_LYMPHOMA_VS_CD4_UP (MNF_Control, combined cohorts): −7.2897 | Z score, SERUM_FIBROBLAST_CELLCYCLE (MNF_Control, combined cohorts): −12.2668 | Z score, SHEPARD_BMYB_MORPHOLINO_DN (MNF_Control, combined cohorts): −6.0639 | Z score, SHEPARD_CRASH_AND_BURN_MUT_VS_WT_DN (MNF_Control, combined cohorts): −5.5788 | Z score, SHEPARD_GENES_COMMON_BW_CB_MO (MNF_Control, combined cohorts): −5.7440 | Z score, STEMCELL_NEURAL_UP (MNF_Control, combined cohorts): −7.2833 | Z score, TARTE_MATURE_PC (MNF_Control, combined cohorts): 6.8026 | Z score, TARTE_PLASMA_BLASTIC (MNF_Control, combined cohorts): −8.3308 | Z score, VERNELL_PRB_CLSTR1 (MNF_Control, combined cohorts): −7.4144 | Z score, YU_CMYC_UP (MNF_Control, combined cohorts): −8.4501 | Z score, ZHAN_MM_CD138_PR_VS_REST (MNF_Control, combined cohorts): −10.7002 | Z score, GO0000775 Chromosome pericentric region (Combined): −6.3081 | Z score, GO0004527 Exonuclease activity (Combined): −5.8765 | Z score, GO0005634 Nucleus (Combined): −9.4291 | Z score, GO0006260 DNA replication (Combined): −7.3157 | Z score, GO0006270 DNA replication initiation (Combined): −5.0248 | Z score, GO0007049 Cell cycle (Combined): −9.3510 | Z score, GO0007051 Spindle organization and biogenesis (Combined): −6.7039 | Z score, GO0007067 Mitosis (Combined): −10.1574 | Z score, GO0048015 Phosphoinositide mediated signaling (Combined): −5.2545 | Z score, GO0051301 Cell division (Combined): −10.1585 | Z score, GO0000775 Chromosome pericentric region (Set 1): −6.7644 | Z score, GO0004527 Exonuclease activity (Set 1): −2.5829 | Z score, GO0005634 Nucleus (Set 1): −2.1680 | Z score, GO0006260 DNA replication (Set 1): −4.7695 | Z score, GO0006270 DNA replication initiation (Set 1): −4.0283 | Z score, GO0007049 Cell cycle (Set 1): −5.1361 | Z score, GO0007051 Spindle organization and biogenesis (Set 1): −4.6166 | Z score, GO0007067 Mitosis (Set 1): −7.5266 | Z score, GO0048015 Phosphoinositide mediated signaling (Set 1): −4.2781 | Z score, GO0051301 Cell division (Set 1): −6.9059 | Z score, GO0000775 Chromosome pericentric region (Set 2): −3.5296 | Z score, GO0004527 Exonuclease activity (Set 2): −5.4622 | Z score, GO0005634 Nucleus (Set 2): −9.9454 | Z score, GO0006260 DNA replication (Set 2): −6.0446 | Z score, GO0006270 DNA replication initiation (Set 2): −3.7775 | Z score, GO0007049 Cell cycle (Set 2): −8.0162 | Z score, GO0007051 Spindle organization and biogenesis (Set 2): −5.2288 | Z score, GO0007067 Mitosis (Set 2): −7.6563 | Z score, GO0048015 Phosphoinositide mediated signaling (Set 2): −3.5441 | Z score, GO0051301 Cell division (Set 2): −8.0673 | Z score, CELL_CYCLE [1]: −7.4222 | Z score, CROONQUIST_IL6_STARVE_UP [1]: −9.0059 | Z score, HDACI_COLON_BUT12 HRS_UP [1]: 3.6676 | Z score, HIPPOCAMPUS_DEVELOPMENT_POSTNATAL [1]: 10.3511 | Z score, HYPOPHYSECTOMY_RAT_DN [1]: 3.9294 | Z score, IDX_TSA_UP_CLUSTER3 [1]: −10.1593 | Z score, P21_P53_ANY_DN [1]: −7.4300 | Z score, SERUM_FIBROBLAST_CELLCYCLE [1]: −10.6997 | Z score, TARTE_MATURE_PC [1]: 5.3293

— patent US11389415B2, “Methods of regulating cannabinoid receptor activity-related disorders and diseases” (The United States of America as represented by the …, priority 2012, dated 2022)
